Changes are numbered by the printed parent chain.
Columns and labels:
RDLT6'V = target: T1, RDLT6'V (Drosophila melanogaster, UniProt P25123, T305V); experiment: Two-electrode voltage clamp of RDLT6'V mutant receptors in Xenopus oocytes; assay type: cell-based
T1 sequence (P25123 45-606 T305V): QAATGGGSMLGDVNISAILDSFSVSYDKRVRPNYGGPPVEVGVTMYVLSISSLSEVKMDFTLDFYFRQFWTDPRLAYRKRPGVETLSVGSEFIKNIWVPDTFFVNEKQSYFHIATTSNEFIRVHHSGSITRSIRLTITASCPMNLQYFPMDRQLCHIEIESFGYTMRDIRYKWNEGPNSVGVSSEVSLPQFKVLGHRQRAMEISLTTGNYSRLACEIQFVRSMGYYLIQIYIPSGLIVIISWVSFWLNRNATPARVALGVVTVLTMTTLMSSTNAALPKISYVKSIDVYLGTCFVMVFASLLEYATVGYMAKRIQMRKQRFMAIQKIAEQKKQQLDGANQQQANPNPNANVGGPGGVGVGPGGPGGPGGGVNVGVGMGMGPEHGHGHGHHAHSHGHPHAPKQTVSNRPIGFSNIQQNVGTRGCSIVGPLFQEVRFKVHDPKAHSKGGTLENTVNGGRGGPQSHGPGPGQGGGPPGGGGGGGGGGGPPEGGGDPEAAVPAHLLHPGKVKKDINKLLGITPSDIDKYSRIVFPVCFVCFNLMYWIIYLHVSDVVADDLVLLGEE

RDLA2'V = target: T2, RDLA2'V (Drosophila melanogaster, UniProt P25123, A301V); experiment: cell-based; assay type: cell-based
T2 sequence (P25123 45-606 A301V): T1 sequence (P25123 45-606 T305V) with A257V, V261T

CC(C)(C)[C@]1(O)CC2OC(=O)CC23C(=O)OC2OC(=O)[C@H](O)C231 (stereo partly shown) [BB, bilobalide] was tested. Which IC50 (RDLT6'V) did it give?
The IC50 was over 1000 µM.

And the IC50 (RDLA2'V)?
The IC50 was 224 µM.

With C[C@@H]1C(=O)O[C@H]2C[C@@]34[C@H]5C[C@@H](C(C)(C)C)[C@]36[C@@H](OC(=O)[C@@H]6O)O[C@@]4(C(=O)O5)[C@]21O [GA, ginkgolide A] as the compound, how does the IC50 (RDLT6'V) read?
Its IC50 is over 1000 µM.

And the IC50 (RDLA2'V)?
Its IC50 is 360 µM.

From publication PMC3336786 (The FASEB Journal, 2012)
